Measurements reported in patent publication US20230149507A1, “TREATMENT OF ALT CANCERS” (INSTITUTO DE MEDICINA MOLECULAR JOÃO LOBO ANTUNES, priority 2019, published 2023).

What was measured:
Assay type in all cases: cell-based, human
U-2 OS cells [1] = assay: Metaphase-TIFs in cells overexpressing FANCM variants; settings: stable overexpression
Text: (§1) (a) Schematic of FANCM domain interactions, mutations or deletions. For clarity, domains have been color coded by functional role (bottom panel). (b) Quantitation of metaphase-TIFs in U-2 OS cells stably overexpressing wild-type (FANCM+) or FANCM mutants. Scatterplot bars represent the mean±SEM. Out of 3 experiments, n≥110 metaphases scored for each mutant, *p<0.05, **p<0.005, Mann-Whitney test. (c) Quantitation of fragile telomeres in U-2 OS cells stably overexpressing wild-type (FANCM+) or FANCM mutants. Scatterplot bars represent the mean±SEM. Out of 3 experiments, n>100 metaphases scored for each mutant, *p<0.05, **p<0.005, Mann-Whitney test. (d) Representative dot blots and quantitation of C-circle assays in U-2 OS cells stably overexpressing wild-type (FANCM+) or FANCM domain mutants. C-circles were normalized to the mean of vector control. Error bars represent mean±SEM from n=3 experiments, *p<0.05, **p<0.005, Student's t-test. (e) Single molecule analysis of telomeric extension events (top panel) and length of extension events (bottom panel) in U-2 OS cells stably overexpressing wild-type (FANCM+) or FANCM domain mutants. Error bars represent mean±SEM of n≥350 fibers out of 3 experiments, *p<0.05, **p<0.005, Student's t-test.
(§2) FIG. 23. Defects in ALT phenotype suppression are exacerbated by overexpression of a double-mutant (DM) FANCM, in which both the MM2 domain (FF>AA) and the translocase domain (K117R) of FANCM are mutated. (a) Representative dot blots and quantitation of C-circle assays in U-2 OS cells stably overexpressing wild-type (WT) or FANCM domain mutants (K117R, FF>AA; DM). C-circles were normalized to the mean of empty vector control (EV). Error bars represent mean±SEM from n=3 experiments, *p<0.05, **p<0.005, Student's t-test. (b) Quantitation of APB frequency in U-2 OS cells overexpressing wild-type (WT) or FANCM mutants. Scatterplot bars represent the mean±SEM. Out of three experiments, n=150 cells were scored for each mutant, **p<0.005, Mann-Whitney test. (c) Quantitation of metaphase-TIFs in U-2 OS cells stably overexpressing wild-type (WT) or FANCM mutants. Scatterplot bars represent the mean±SEM. Out of three experiments, n=120 metaphases scored for each mutant, *p<0.05, **p<0.005, Mann-Whitney test. All statistical comparisons are relative to EV control.
(§3) Empty vector and wild-type FANCM (pCMV6-Myc-DDK) constructs were obtained from Origene Technologies. Wild type FANCM (SEQ ID NO: 2) and FANCM mutants (SEQ ID NOs: 19 to 28) were cloned into the pLenti-C-Myc-DDK-IRES-Neo backbone (Origene Technologies) by restriction enzyme subcloning of gene blocks synthesized by Integrated DNA Technologies (IDT). Lentivirus was produced by the Vector and Genome Engineering Facility (Children's Medical Research Institute). For stable overexpression, cells were transduced with lentivirus, allowed to recover for 24 h, and subject to G418 selection. Cells were maintained in G418 to ensure sustained overexpression.
(§4) Indirect IF and telomere FISH were performed on both interphase nuclei and metaphase spreads. For interphase IF experiments, cells were grown on coverslips or LabTek chamber slides (Thermo Scientific). Slides were prepared as described in Sobinoff et al., 2017. Cells on coverslips were washed twice with PBS, permeabilized with KCM buffer (120 mM KCl, 20 mM NaCl, 10 mM Tris pH 7.5, 0.1% Triton), washed again with PBST and PBS, then fixed with ice-cold 4% formaldehyde PBS solution at room temperature for 10 min. […]

U-2 OS cells [2] = assay: C-circle assay in cells overexpressing FANCM variants; settings: stable overexpression, compared to vector control
Text: as §1, §2, §3
C-circles were amplified with Phi29 polymerase using dATP, dTTP and dGTP overnight. Products were dot blotted onto Biodyne B membranes (Pall) and pre-hybridised in PerfectHyb Plus (Sigma) for at least 30 min. Radiolabeled telomeric C-probe was then added and blots were hybridized overnight at 37° C. (Henson et al., 2009). Blots were washed with 0.5×SSC, 0.1% SDS three times for 5 min each then exposed to phosphor screen. Imaging was performed on the Typhoon FLA 7000 system (GE Healthcare) with a PMT of 750 V.

U-2 OS cells [3] = assay: APB frequency and APB telomere intensity in cells overexpressing FANCM variants; settings: overexpression
Text: (a) Western immunoblotting of stable wild-type FANCM (FANCM+) or FANCM mutant overexpression in U-2 OS cells. […] (b) TRF analysis of U-2 OS cells overexpressing wild-type (FANCM+) or FANCM mutants. Gels were hybridized under native and denatured conditions with radiolabelled telomeric probes to detect the C-strand and G-strand. (c) Tukey boxplots of APB frequency (top panel) and mean APB telomere intensity (bottom panel) in U-2 OS cells overexpressing wild-type (FANCM+) or FANCM mutants. Out of 3 experiments, n=150 cells scored per variant, *p<0.05, **p<0.005, Mann-Whitney test.
as §2, §3
Indirect IF and telomere FISH were performed on both interphase nuclei and metaphase spreads. For interphase IF experiments, cells were grown on coverslips or LabTek chamber slides (Thermo Scientific). Slides were prepared as described in Sobinoff et al., 2017. Cells on coverslips were washed twice with PBS, permeabilized with KCM buffer (120 mM KCl, 20 mM NaCl, 10 mM Tris pH 7.5, 0.1% Triton), washed again with PBST and PBS, then fixed with ice-cold 4% formaldehyde PBS solution at room temperature for 10 min. Coverslips were blocked with antibody-dilution buffer (20 mM Tris-HCl, pH 7.5, 2% (w/v) BSA, 0.2% (v/v) fish gelatin, 150 mM NaCl, 0.1% (v/v) Triton X-100 and 0.1% (w/v) sodium azide) and 0.1 mg/ml RNaseA for 30 min at 37° C. Cells were incubated with primary antibodies (Supplementary Table 1) for 1 h at 37° C. or 2 h at room temperature, then incubated with 1:1,000 dilution of appropriate Alexa Fluor conjugated secondary antibodies (Thermo Scientific). Coverslips were rinsed with PBS then fixed with 4% (v/v) formaldehyde at room temperature prior to telomere FISH. Coverslips were subjected to a graded ethanol series (75% for 2 min, 85% for 2 min, and 100% for 2 min) and allowed to air-dry. […]

U-2 OS cells [4] = assay: Fragile telomeres in cells overexpressing FANCM variants; settings: stable overexpression
Text: as §1, §3
as §4, with “min. Coverslips were blocked with antibody-dilution buffer (20 mM Tris-HCl, pH 7.5, 2% (w/v) BSA, 0.2% (v/v) fish gelatin, 150 mM NaCl, 0.1% (v/v) Triton X-100 and 0.1% (w/v) sodium azide) and 0.1 mg/ml RNaseA for 30 min at 37° C.” for “min.”

## DM: double mutant FANCM with both the K117R substitution and the FF>AA double substitution (SEQ ID NO:35)
U-2 OS cells [1]
  telomere dysfunction (metaphase-TIFs): enhanced telomere dysfunction
U-2 OS cells [2]
  C-circle levels: significantly greater increase in C-circles
U-2 OS cells [3]
  number of APBs: greater increase in the number of APBs

## ERCC4: FANCM ERCC4 domain mutant (SEQ ID NO: 27), deletion at amino acid residues 1815-1922
U-2 OS cells [2]
  C-circle levels: did not cause a change in C-circle levels

## HhH: FANCM HhH domain mutant (SEQ ID NO: 28), deletion at amino acid residues 1971-2048
U-2 OS cells [2]
  C-circle levels: did not cause a change in C-circle levels

## MID: FANCM MID domain mutant (SEQ ID NO: 21) substituted at V749G/H751G
U-2 OS cells [4]
  number of fragile telomeres (telomere fragility): significantly increased
U-2 OS cells [1]
  telomere dysfunction (metaphase-TIFs): significantly increased

## wild-type FANCM: wild type FANCM (SEQ ID NO: 2) stably overexpressed by lentivirus
U-2 OS cells [4]
  number of fragile telomeres (telomere fragility): significant decrease
U-2 OS cells [1]
  telomere dysfunction (metaphase-TIFs): significant decrease
U-2 OS cells [2]
  C-circle levels: significant decrease in C-circle generation
